For this experiment, the system named is OVCAR-5 complex spheroids with HUVEC/MSC, viability, % test/control. Description: Anticancer human tumor OVCAR-5 cell line growth inhibition [AhR].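 On all read-outs here: spheroids exposed to compounds for 7 days.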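 On viability, T/C: 100% = DMSO vehicle control wells.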 The note with it: for viability, T/C: stronger effect = lower value. In outline:
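Agents were dosed in half-log steps down from roughly clinical Cmax, or from 10 microM where Cmax was unknown, alone and with AhR antagonists. Read-out: percent test/control growth of tumor spheroids containing HUVEC and MSC stromal cells.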

Where [1] appears, read: curve of first compound, second compound 0.1 µM.
The mark [2] stands for this setting: curve of first compound, second compound 0.316 µM.
[3] abbreviates: curve of first compound, second compound 1 µM.
Setting [4] is: curve of first compound, second compound 3.16 µM.
The mark [5] stands for this setting: curve of first compound, second compound 10 µM.
[6] abbreviates: second compound 0.1 µM, first compound 0.0316 µM.
The mark [7] stands for this setting: second compound 0.1 µM, first compound 0.1 µM.
[8] abbreviates: second compound 0.1 µM, first compound 0.316 µM.
[9] abbreviates: second compound 0.1 µM, first compound 1 µM.
The mark [10] stands for this setting: second compound 0.316 µM, first compound 0.0316 µM.
The mark [11] stands for this setting: second compound 0.316 µM, first compound 0.1 µM.
Where [12] appears, read: second compound 0.316 µM, first compound 0.316 µM.
The mark [13] stands for this setting: second compound 0.316 µM, first compound 1 µM.
Where [14] appears, read: second compound 1 µM, first compound 0.0316 µM.
Setting [15] is: second compound 1 µM, first compound 0.1 µM.
The mark [16] stands for this setting: second compound 1 µM, first compound 0.316 µM.
Setting [17] is: second compound 1 µM, first compound 1 µM.
The mark [18] stands for this setting: second compound 3.16 µM, first compound 0.0316 µM.
[19] abbreviates: second compound 3.16 µM, first compound 0.1 µM.
Setting [20] is: second compound 3.16 µM, first compound 0.316 µM.
The mark [21] stands for this setting: second compound 3.16 µM, first compound 1 µM.
[22] abbreviates: second compound 10 µM, first compound 0.0316 µM.
[23] abbreviates: second compound 10 µM, first compound 0.1 µM.
Setting [24] is: second compound 10 µM, first compound 0.316 µM.
[25] abbreviates: second compound 10 µM, first compound 1 µM.

These results are taken from PubChem BioAssay AID1919015 (Molecular Pharmacology Branch, DTP, NCI, 2023).

As a reminder, the IC50 is the concentration that gives 50% inhibition. Broadly, the viability, T/C is the result in the treated group divided by that in the control group, in per cent.

Several values for one entry are separate records, joined by “and”; a condition that tells them apart may be missing. Equal entries are not always repeated.

With `O=C(C=Cn1cnc(-c2cc(C(F)(F)F)cc(C(F)(F)F)c2)n1)NNc1cnccn1` + CC(CO)NC(=O)c1cc(-c2ccc(Cl)cc2)nn(-c2cnn(C)c2)c1=O, the IC50 under setting [1] amounted to 1.9 µM; the IC50 under setting [2] turned out to be 2.18 µM; the IC50 under setting [3] amounted to 2.68 µM; the IC50 under setting [4] is 2.02 µM; the IC50 under setting [5] came out at 1.67 µM. Further, the viability, T/C by setting is: (second compound 0.1 µM, first compound 0.00949 µM) 109%; (second compound 0.1 µM, first compound 0.03 µM) 113%; (second compound 0.1 µM, first compound 0.0949 µM) 101%; (second compound 0.1 µM, first compound 0.3 µM) 86.7%; (second compound 0.1 µM, first compound 0.949 µM) 66.4%; (second compound 0.1 µM, first compound 3 µM) 39.6%. Also, the viability, T/C is, setting by setting: (second compound 0.316 µM, first compound 0.00949 µM) 110%; (second compound 0.316 µM, first compound 0.03 µM) 110%; (second compound 0.316 µM, first compound 0.0949 µM) 104%; (second compound 0.316 µM, first compound 0.3 µM) 86%; (second compound 0.316 µM, first compound 0.949 µM) 64%; (second compound 0.316 µM, first compound 3 µM) 44.7%. In addition, the viability, T/C was 113% (second compound 1 µM, first compound 0.00949 µM); 114% (second compound 1 µM, first compound 0.03 µM); 111% (second compound 1 µM, first compound 0.0949 µM); 90.1% (second compound 1 µM, first compound 0.3 µM); 70.2% (second compound 1 µM, first compound 0.949 µM); 47.5% (second compound 1 µM, first compound 3 µM). Further, the viability, T/C was 101% (second compound 3.16 µM, first compound 0.00949 µM); 112% (second compound 3.16 µM, first compound 0.03 µM); 103% (second compound 3.16 µM, first compound 0.0949 µM); 87.5% (second compound 3.16 µM, first compound 0.3 µM); 69.7% (second compound 3.16 µM, first compound 0.949 µM); 40.1% (second compound 3.16 µM, first compound 3 µM). The viability, T/C (second compound 10 µM, first compound 0.00949 µM) was 97%; the viability, T/C (second compound 10 µM, first compound 0.03 µM) was 98.2%; the viability, T/C (second compound 10 µM, first compound 0.0949 µM) was 97.6%; the viability, T/C (second compound 10 µM, first compound 0.3 µM) is 83.3%; the viability, T/C (second compound 10 µM, first compound 0.949 µM) was 65.8%; the viability, T/C (second compound 10 µM, first compound 3 µM) was 34.2%.
As to `COc1cc(C2c3cc4c(cc3C(OC3OC5COC(C)OC5C(O)C3O)C3COC(=O)C23)OCO4)cc(OC)c1O` (centres undefined) + Cc1cncc(-c2nc(NCCc3c[nH]c4ccccc34)c3ncn(C(C)C)c3n2)c1, the IC50 under setting [1] was 2.68 µM; the IC50 under setting [2] was determined as 2.94 µM; the IC50 under setting [3] amounted to 2.36 µM; the IC50 under setting [4] was determined as 0.909 µM; the IC50 under setting [5] was < 0.0316 µM. Further, the viability, T/C is 97.2% under setting [6]; 97.1% under setting [7]; 90.8% under setting [8]; 68.8% under setting [9]; 47.8% (second compound 0.1 µM, first compound 3.16 µM); 36.1% (second compound 0.1 µM, first compound 10 µM). In addition, the viability, T/C by setting is: under setting [10], 97.1%; under setting [11], 93.3%; under setting [12], 86%; under setting [13], 67.7%; (second compound 0.316 µM, first compound 3.16 µM) 49%; (second compound 0.316 µM, first compound 10 µM) 37.6%. The viability, T/C runs as follows: under setting [14], 90%; under setting [15], 91.6%; under setting [16], 79.7%; under setting [17], 62.9%; (second compound 1 µM, first compound 3.16 µM) 46.1%; (second compound 1 µM, first compound 10 µM) 37.4%. The viability, T/C runs as follows: under setting [18], 79.8%; under setting [19], 80.1%; under setting [20], 67.9%; under setting [21], 48.1%; (second compound 3.16 µM, first compound 3.16 µM) 37.6%; (second compound 3.16 µM, first compound 10 µM) 33%. Also, the viability, T/C under setting [22] is 9.11%; the viability, T/C under setting [23] is 9.43%; the viability, T/C under setting [24] was 7.81%; the viability, T/C under setting [25] is 4.62%; the viability, T/C (second compound 10 µM, first compound 3.16 µM) was 3.56%; the viability, T/C (second compound 10 µM, first compound 10 µM) is 7.82%.
As for `CC1(C)CCC(CN2CCN(c3ccc(C(=O)NS(=O)(=O)c4ccc(NCC5CCOCC5)c([N+](=O)[O-])c4)c(Oc4cnc5[nH]ccc5c4)c3)CC2)=C(c2ccc(Cl)cc2)C1`, the viability, T/C was 101% and 99.7% and 103% (compound 0.0316 µM); 99.9% and 101% and 107% (compound 0.1 µM); 102% and 97.2% and 103% (compound 0.316 µM); 103% (2×) and 98.7% (compound 1 µM); 108% and 98.8% and 114% (compound 3.16 µM); 92% and 56.4% and 56% (compound 10 µM). The IC50 (curve of compound) is > 10 µM.
`Nc1ncn(C2CC(O)C(CO)O2)c(=O)n1` (centres undefined) + Cc1cncc(-c2nc(NCCc3c[nH]c4ccccc34)c3ncn(C(C)C)c3n2)c1: the IC50 reads like this: under setting [1], > 1 µM; under setting [2], > 1 µM; under setting [3], > 1 µM; under setting [4], > 1 µM; under setting [5], < 0.00316 µM. For the same compound, the viability, T/C was 98.3% (second compound 0.1 µM, first compound 0.00316 µM); 94.2% (second compound 0.1 µM, first compound 0.01 µM); 87.6% under setting [6]; 80.7% under setting [7]; 69% under setting [8]; 62.7% under setting [9]. Further, the viability, T/C is 93.8% (second compound 0.316 µM, first compound 0.00316 µM); 91.7% (second compound 0.316 µM, first compound 0.01 µM); 90% under setting [10]; 74.8% under setting [11]; 65.5% under setting [12]; 59% under setting [13]. Besides, the viability, T/C (second compound 1 µM, first compound 0.00316 µM) was 96.2%; the viability, T/C (second compound 1 µM, first compound 0.01 µM) was 85.5%; the viability, T/C under setting [14] is 85.4%; the viability, T/C under setting [15] is 78.3%; the viability, T/C under setting [16] is 61.5%; the viability, T/C under setting [17] is 61.8%. Besides, the viability, T/C runs as follows: (second compound 3.16 µM, first compound 0.00316 µM) 79.8%; (second compound 3.16 µM, first compound 0.01 µM) 77.8%; under setting [18], 70.4%; under setting [19], 64%; under setting [20], 59.8%; under setting [21], 51.2%. For the same compound, the viability, T/C (second compound 10 µM, first compound 0.00316 µM) is 10.4%; the viability, T/C (second compound 10 µM, first compound 0.01 µM) is 10.1%; the viability, T/C under setting [22] is 8.47%; the viability, T/C under setting [23] is 8.64%; the viability, T/C under setting [24] is 8.49%; the viability, T/C under setting [25] was 11.6%.
`COc1cc(C2c3cc4c(cc3C(OC3OC5COC(C)OC5C(O)C3O)C3COC(=O)C23)OCO4)cc(OC)c1O` (centres undefined): the viability, T/C is, setting by setting: (compound 0.0316 µM) 96.3% and 99.9% and 103%; (compound 0.1 µM) 98.8% and 99.4% and 103%; (compound 0.316 µM) 90.1% and 91.7% and 91.1%; (compound 1 µM) 73.2% and 79.8% and 64.9%; (compound 3.16 µM) 50% and 52.3% and 41.3%; (compound 10 µM) 37.2% and 34.4% and 30.3%. The IC50 (curve of compound) is 3.12 µM and 3.79 µM and 2.03 µM.
